Test results from patent publication US20100029619A1, “FUSED HETEROCYCLIC COMPOUND” (TAKEDA PHARMACEUTICAL COMPANY LIMTED, priority 2006, published 2010).

Q: For `CC(C)(C)c1ccc(C(=O)Nc2cn3nc(-c4cn[nH]c4)ccc3n2)cc1` [Example 174, 4-tert-butyl-N-[6-(1H-pyrazol-4-yl)imidazo[1,2-b]pyridazin-2-yl]benzamide], which melting point is on record?
A: 358 to 362 °C (dec.)

Q: With `O=C(Nc1cn2cc(Cl)ccc2n1)c1ccc(-n2cccn2)cc1` [Example 95, N-(6-chloroimidazo[1,2-a]pyridin-2-yl)-4-(1H-pyrazol-1-yl)benzamide] as the compound, how does the melting point read?
A: 287 to 289 °C

Q: Which melting point does the source give for `CC(C)(C)c1ccc(C(=O)Nc2cn3cc(-c4cccs4)ccc3n2)cc1` [Example 107, 4-tert-butyl-N-[6-(2-thienyl)imidazo[1,2-a]pyridin-2-yl]benzamide] here?
A: 273 to 275 °C

Q: With `Cc1cccc2nc(NC(=O)c3ccc(C(C)(C)C)cc3)cn12` [Example 65, 4-tert-Butyl-N-(5-methylimidazo[1,2-a]pyridin-2-yl)benzamide] as the compound, how does the melting point read?
A: 204 to 205 °C

Q: With `Cn1cc(-c2ccc3nc(NC(=O)c4ccc(C(C)(C)CO)cc4)cn3c2)cn1` [Example 462, 4-(2-hydroxy-1,1-dimethylethyl)-N-[6-(1-methyl-1H-pyrazol-4-yl)imidazo[1,2-a]pyridin-2-yl]benzamide] as the compound, how does the melting point read?
A: 275 to 277 °C

Q: Which melting point does the source give for `CC(C)(CCC#N)c1ccc(C(=O)Nc2cn3c4c(ccc3n2)OCC4)cc1` [Example 441, 4-(3-cyano-1,1-dimethylpropyl)-N-(1,2-dihydrofuro[2,3-e]imidazo[1,2-a]pyridin-7-yl)benzamide] here?
A: 227 to 228 °C

Q: For `CC(C)(CNC(=O)Cc1cnc[nH]1)c1ccc(C(=O)Nc2cn3cc(C(F)(F)F)ccc3n2)cc1` [Example 458, 4-{2-[(1H-imidazol-5-ylacetyl)amino]-1,1-dimethylethyl}-N-[6-(trifluoromethyl)imidazo[1,2-a]pyridin-2-yl]benzamide], which melting point is on record?
A: 261 to 263 °C

Q: Which melting point does the source give for `CC(C)(CCO)c1ccc(C(=O)Nc2cn3cc(C(F)(F)F)ccc3n2)cc1` [Example 459, 4-(3-hydroxy-1,1-dimethylpropyl)-N-[6-(trifluoromethyl)imidazo[1,2-a]pyridin-2-yl]benzamide] here?
A: 152 to 153 °C

Q: Which melting point does the source give for `CCc1nc(C)cn1-c1ccc2nc(NC(=O)c3ccc(C(C)(C)C)cc3)cn2n1` [Example 144, 4-tert-butyl-N-[6-(2-ethyl-4-methyl-1H-imidazol-1-yl)imidazo[1,2-b]pyridazin-2-yl]benzamide] here?
A: 220 to 221 °C

Q: With `CC(C)(CO)c1ccc(C(=O)Nc2cn3cc(-n4ccnc4)ccc3n2)cc1` [Example 103, 4-(2-hydroxy-1,1-dimethylethyl)-N-[6-(1H-imidazol-1-yl)imidazo[1,2-a]pyridin-2-yl]benzamide] as the compound, how does the melting point read?
A: 278 to 280 °C

Q: For `Cc1c(NC(=O)c2ccc(C(C)(C)C)cc2)nc2ccc(Cl)nn12` [Example 55, 4-tert-butyl-N-(6-chloro-3-methylimidazo[1,2-b]pyridazin-2-yl)benzamide], which melting point is on record?
A: 269 to 270 °C

Q: For `CC(=O)c1ccc2nc(NC(=O)c3ccc(C(C)(C)C)cc3)cn2n1` [Example 151, N-(6-acetylimidazo[1,2-b]pyridazin-2-yl)-4-tert-butylbenzamide], which melting point is on record?
A: 237 to 238 °C

Q: With `CC(C)c1ncc(-c2ccc3nc(NC(=O)c4ccc(C(C)(C)C)cc4)cn3n2)[nH]1.Cl` as the compound, how does the melting point read?
A: 304 to 305 °C (dec.)
